Values after ≈ are worked out from the molar mass of the structure shown.
Key:
[1] = system: B. anthracis GFP sterne vegetative cells; assay: microbe, parasite or virus in culture; type: cell-based; details: Bacillus anthracis, read-out: MIC B. anthracis vegetative cells
[2] = biological target: botulinum neurotoxin serotype A light chain (Clostridium botulinum, UniProt P0DPI0); type: biochemical, Clostridium botulinium
[3] = system: B. anthracis GFP sterne spores; assay: microbe, parasite or virus in culture; type: cell-based; details: for MIC: Bacillus anthracis, read-out: MIC B. anthracis spores
[4] = biological target: anthrax lethal factor (Bacillus anthracis, UniProt P15917); type: biochemical
[5] = system: B. subtilis; assay: microbe, parasite or virus in culture; type: cell-based; details: Bacillus subtilis
[6] = system: K. pneumoniae; assay: microbe, parasite or virus in culture; type: cell-based; details: Klebsiella pneumoniae
[7] = system: B. licheniformis; assay: microbe, parasite or virus in culture; type: cell-based; details: Bacillus licheniformis
[8] = system: Y. pestis; assay: microbe, parasite or virus in culture; type: cell-based; details: Yersinia pestis
[9] = system: Ames spores; assay: microbe, parasite or virus in culture; type: cell-based, B. anthracis; details: Bacillus anthracis
[10] = system: Sterne spores; type: cell-based, B. anthracis
[11] = system: S. aureus; assay: microbe, parasite or virus in culture; type: cell-based; details: Staphylococcus aureus
[12] = system: Burkholderia pseudomallei; assay: microbe, parasite or virus in culture; type: cell-based
[13] = system: P. aeruginosa PAO1; assay: microbe, parasite or virus in culture; type: cell-based; details: Pseudomonas aeruginosa
[14] = system: B. pumilus; assay: microbe, parasite or virus in culture; type: cell-based; details: Bacillus pumilus
[15] = system: Methicillin resistant S. aureus; assay: microbe, parasite or virus in culture; type: cell-based; details: Staphylococcus aureus
[16] = system: B. anthracis Ames; assay: microbe, parasite or virus in culture; type: cell-based; details: Bacillus anthracis
[17] = system: B. brevis; assay: microbe, parasite or virus in culture; type: cell-based; details: Brevibacillus brevis
[18] = system: Burkholderia thailandensis; assay: microbe, parasite or virus in culture; type: cell-based
[19] = system: B. cepacia; assay: microbe, parasite or virus in culture; type: cell-based; details: Burkholderia cepacia
[20] = system: Burkholderia mallei; assay: microbe, parasite or virus in culture; type: cell-based
[21] = system: E. coli; assay: microbe, parasite or virus in culture; type: cell-based; details: Escherichia coli
[22] = system: B. megaterium; assay: microbe, parasite or virus in culture; type: cell-based; details: Priestia megaterium
[23] = system: Ames spores; assay: microbe, parasite or virus in culture; type: cell-based, B. anthracis; details: Bacillus anthracis; remark: listed apart in the source
[24] = system: E. feacalis; assay: organism not typed; type: cell-based

Sequence of anthrax lethal factor (P15917 34-809 limits assumed): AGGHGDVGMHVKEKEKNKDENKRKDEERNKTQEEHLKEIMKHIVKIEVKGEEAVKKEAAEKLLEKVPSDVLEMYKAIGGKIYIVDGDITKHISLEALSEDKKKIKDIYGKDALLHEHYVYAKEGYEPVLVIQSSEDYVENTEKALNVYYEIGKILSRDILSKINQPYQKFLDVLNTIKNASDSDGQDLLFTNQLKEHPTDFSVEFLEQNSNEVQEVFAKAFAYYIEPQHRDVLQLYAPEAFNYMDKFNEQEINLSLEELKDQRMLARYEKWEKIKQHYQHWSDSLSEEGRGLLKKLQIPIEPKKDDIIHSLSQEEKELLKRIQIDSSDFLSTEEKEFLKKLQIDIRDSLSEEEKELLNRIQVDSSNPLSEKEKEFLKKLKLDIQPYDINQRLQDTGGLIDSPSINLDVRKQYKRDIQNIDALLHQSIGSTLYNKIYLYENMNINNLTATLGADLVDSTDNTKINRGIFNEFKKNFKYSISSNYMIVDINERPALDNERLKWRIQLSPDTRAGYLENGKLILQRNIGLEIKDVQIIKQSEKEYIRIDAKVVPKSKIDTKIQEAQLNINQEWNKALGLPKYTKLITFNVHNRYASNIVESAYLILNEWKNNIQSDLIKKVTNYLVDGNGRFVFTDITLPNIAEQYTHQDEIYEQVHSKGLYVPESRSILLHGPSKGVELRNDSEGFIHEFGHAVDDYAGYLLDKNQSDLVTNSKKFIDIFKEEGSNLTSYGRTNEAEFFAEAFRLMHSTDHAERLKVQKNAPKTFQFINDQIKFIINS
Sequence of botulinum neurotoxin serotype A light chain (P0DPI0 2-448 limits assumed): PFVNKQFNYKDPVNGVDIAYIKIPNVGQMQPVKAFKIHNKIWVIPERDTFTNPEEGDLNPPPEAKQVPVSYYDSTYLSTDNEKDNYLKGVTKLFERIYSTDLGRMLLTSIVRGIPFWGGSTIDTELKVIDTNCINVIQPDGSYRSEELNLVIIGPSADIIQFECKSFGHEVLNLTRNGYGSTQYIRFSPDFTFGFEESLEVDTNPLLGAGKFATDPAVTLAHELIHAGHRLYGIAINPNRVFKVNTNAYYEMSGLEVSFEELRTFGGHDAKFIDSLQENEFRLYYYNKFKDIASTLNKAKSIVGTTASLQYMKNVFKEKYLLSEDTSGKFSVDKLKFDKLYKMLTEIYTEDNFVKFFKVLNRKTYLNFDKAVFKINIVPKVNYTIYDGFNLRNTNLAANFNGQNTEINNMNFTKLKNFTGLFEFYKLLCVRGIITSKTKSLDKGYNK

SMILES	MIC [1] [µg/mL]	MIC [3] [µg/mL]	inhibition of the protease activity of anthrax lethal factor [4]	other results
N=C(N)c1ccc(Oc2ccc(-c3cc4ccc(C(=N)N)cc4[nH]3)cc2)cc1 [NSC 240898, 2-[4-(4-carbamimidoylphenoxy)phenyl]-1H-indole-6-carboximidamide]	4.42 (≈ 12 µM)	4.42 (≈ 12 µM)	inhibit	inhibition of botulinum neurotoxin serotype A light chain metalloprotease activity [2]: inhibit
Cc1c(/C=C/c2oc3ccc(C(=N)N)cc3c2C)oc2ccc(C(=N)N)cc12 [NSC 266474, 2-[(E)-2-(5-carbamimidoyl-3-methyl-benzofuran-2-yl)ethenyl]-3-methyl-benzofuran-5-carboximidamide]	> 17.8	> 17.8	inhibit	–
C/C(=C\c1cc2cc(C(=N)N)ccc2o1)c1cc2cc(C(=N)N)ccc2o1 [NSC 266476, 2-[(E)-1-(5-carbamimidoylbenzofuran-2-yl)prop-1-en-2-yl]benzofuran-5-carboximidamide]	> 17.2	> 17.2	inhibit	–
N=C(N)c1ccc2[nH]c(/C=C/c3cc4cc(C(=N)N)ccc4o3)cc2c1 [NSC 290107, 2-[(E)-2-(5-carbamimidoylbenzofuran-2-yl)ethenyl]-1H-indole-5-carboximidamide]	> 16.6	8.32 (≈ 24.2 µM)	inhibit	–
C(=C\c1cc2cc(C3=NCCN3)ccc2o1)/c1cc2cc(C3=NCCN3)ccc2[nH]1 [NSC 290108, 5-(4,5-dihydro-1H-imidazol-2-yl)-2-[(E)-2-[5-(4,5-dihydro-1H-imidazol-2-yl)benzofuran-2-yl]ethenyl]-1H-indole]	> 18.5	18.5 (≈ 46.7 µM)	inhibit	–
N=C(N)c1ccc2oc(CCc3cc4ccc(C(=N)N)cc4[nH]3)cc2c1 [NSC 290109, 2-[2-(5-carbamimidoylbenzofuran-2-yl)ethyl]-1H-indole-6-carboximidamide]	8.36 (≈ 24.2 µM)	8.36 (≈ 24.2 µM)	inhibit	–
N=C(N)c1ccc2cc(/C=C/c3cc4ccc(C(=N)N)cc4o3)[nH]c2c1 [NSC 294200, 2-[(E)-2-(6-carbamimidoylbenzofuran-2-yl)ethenyl]-1H-indole-6-carboximidamide]	4.16 (≈ 12.1 µM)	2.08 (≈ 6.06 µM)	inhibit	–
C(=C\c1cc2ccc(C3=NCCN3)cc2o1)/c1cc2ccc(C3=NCCN3)cc2[nH]1 [NSC 294201, 6-(4,5-dihydro-1H-imidazol-2-yl)-2-[(E)-2-[6-(4,5-dihydro-1H-imidazol-2-yl)benzofuran-2-yl]ethenyl]-1H-indole]	18.7 (≈ 47.3 µM)	4.68 (≈ 11.8 µM)	inhibit	–
N=C(N)c1ccc2[nH]c(/C=C/c3cc4ccc(C(=N)N)cc4o3)cc2c1 [NSC 294203, 2-[(E)-2-(6-carbamimidoylbenzofuran-2-yl)ethenyl]-1H-indole-5-carboximidamide]	> 16.6	16.6 (≈ 48.5 µM)	inhibit	–
C(=C\c1cc2ccc(C3=NCCN3)cc2o1)/c1cc2cc(C3=NCCN3)ccc2[nH]1 [NSC 294204, 5-(4,5-dihydro-1H-imidazol-2-yl)-2-[(E)-2-[6-(4,5-dihydro-1H-imidazol-2-yl)benzofuran-2-yl]ethenyl]-1H-indole]	> 18.7	18.7 (≈ 47.3 µM)	inhibit	–
O=C(Nc1ccc(C2=NCCN2)cc1)c1cc2ccc(C3=NCCN3)cc2[nH]1 [NSC 294206, 6-(4,5-dihydro-1H-imidazol-2-yl)-N-[4-(4,5-dihydro-1H-imidazol-2-yl)phenyl]-1H-indole-2-carboxamide]	17.8 (≈ 47.8 µM)	8.9 (≈ 23.9 µM)	inhibit	–
N=C(N)c1ccc2oc(/C=C/C=C/c3cc4cc(C(=N)N)ccc4o3)cc2c1 [NSC 300511, 2-[(1E,3E)-4-(5-carbamimidoylbenzofuran-2-yl)buta-1,3-dienyl]benzofuran-5-carboximidamide]	17.7 (≈ 47.8 µM)	2.21 (≈ 5.98 µM)	inhibit	–
C(/C=C/c1cc2cc(C3=NCCN3)ccc2o1)=C\c1cc2cc(C3=NCCN3)ccc2o1 [NSC 308571, 2-[2-[(1E,3E)-4-[5-(4,5-dihydro-1H-imidazol-2-yl)benzofuran-2-yl]buta-1,3-dienyl]benzofuran-5-yl]-4,5-dihydro-1H-imidazole]	19.8 (≈ 46.9 µM)	9.9 (≈ 23.4 µM)	inhibit	–
N=C(N)c1ccc(/C=C/C=C/c2cc3cc(C(=N)N)ccc3o2)cc1 [NSC 308572, 2-[(1E,3E)-4-(4-carbamimidoylphenyl)buta-1,3-dienyl]benzofuran-5-carboximidamide]	16.1 (≈ 48.8 µM)	8.06 (≈ 24.4 µM)	inhibit	–
C(=C\c1cc2ccc(C3=NCCN3)cc2[nH]1)/c1cc2ccc(C3=NCCN3)cc2[nH]1 [NSC 317880, 6-(4,5-dihydro-1H-imidazol-2-yl)-2-[(E)-2-[6-(4,5-dihydro-1H-imidazol-2-yl)-1H-indol-2-yl]ethenyl]-1H-indole]	1.17 (≈ 2.96 µM)	0.292 (≈ 0.74 µM)	inhibit	MIC [5]: 0.292 µg/mL (≈ 0.74 µM); MIC [6]: > 18.7 µg/mL; MIC [7]: 2.33 µg/mL (≈ 5.92 µM); MIC [8]: 18.7 µg/mL (≈ 47.4 µM); MBC [9]: 0.146 µg/mL (≈ 0.37 µM); effect on spore germination [10]: results to those of NSC 317881 were obtained; MIC [11]: 1.17 µg/mL (≈ 2.96 µM); MIC [12]: 18.7 µg/mL (≈ 47.4 µM); MIC [13]: 1.17 µg/mL (≈ 2.96 µM); MIC [14]: 0.146 µg/mL (≈ 0.37 µM); MIC [15]: 2.33 µg/mL (≈ 5.92 µM); MIC [16]: 0.584 µg/mL (≈ 1.48 µM); MIC [17]: 0.584 µg/mL (≈ 1.48 µM); MIC [18]: 18.7 µg/mL (≈ 47.4 µM); MIC [19]: 18.7 µg/mL (≈ 47.4 µM); MIC [20]: 9.34 µg/mL (≈ 23.7 µM); MIC [21]: 0.584 µg/mL (≈ 1.48 µM); MIC [22]: 0.584 µg/mL (≈ 1.48 µM); MIC [23]: 0.146 µg/mL (≈ 0.37 µM); MIC [24]: 0.584 µg/mL (≈ 1.48 µM)
N=C(N)c1ccc(/C=C/c2cc3cc(C(=N)N)ccc3[nH]2)cc1 [NSC 317884, 2-[(E)-2-(4-carbamimidoylphenyl)ethenyl]-1H-indole-5-carboximidamide]	> 15	15 (≈ 49.6 µM)	inhibit	–
C(=C\c1cc2cc(C3=NCCN3)ccc2[nH]1)/c1ccc(C2=NCCN2)cc1 [NSC 317885, 5-(4,5-dihydro-1H-imidazol-2-yl)-2-[(E)-2-[4-(4,5-dihydro-1H-imidazol-2-yl)phenyl]ethenyl]-1H-indole]	> 17.1	> 17.1	inhibit	–
N=C(N)c1ccc(/C=C/c2cc3ccc(C(=N)N)cc3[nH]2)cc1 [NSC 317886, 2-[(E)-2-(4-carbamimidoylphenyl)ethenyl]-1H-indole-6-carboximidamide]	15 (≈ 49.5 µM)	7.52 (≈ 24.8 µM)	inhibit	–
C(=C\c1cc2ccc(C3=NCCN3)cc2[nH]1)/c1ccc(C2=NCCN2)cc1 [NSC 317887, 6-(4,5-dihydro-1H-imidazol-2-yl)-2-[(E)-2-[4-(4,5-dihydro-1H-imidazol-2-yl)phenyl]ethenyl]-1H-indole]	> 17.1	8.56 (≈ 24.1 µM)	inhibit	–
c1cc2cc(-c3ccc4cc(C5=NCCN5)[nH]c4c3)[nH]c2cc1C1=NCCN1 [NSC 330687, 2-(4,5-dihydro-1H-imidazol-2-yl)-6-[6-(4,5-dihydro-1H-imidazol-2-yl)-1H-indol-2-yl]-1H-indole]	1.1 (≈ 2.99 µM)	0.551 (≈ 1.5 µM)	–	MIC [5]: 0.551 µg/mL (≈ 1.5 µM); MIC [6]: > 17.6 µg/mL; MIC [7]: 2.21 µg/mL (≈ 5.99 µM); MIC [8]: 8.82 µg/mL (≈ 23.9 µM); MBC [9]: 0.276 µg/mL (≈ 0.749 µM); effect on spore germination [10]: results to those of NSC 317881 were obtained; MIC [11]: 1.1 µg/mL (≈ 2.99 µM); MIC [12]: > 17.6 µg/mL; MIC [13]: 17.6 µg/mL (≈ 47.9 µM); MIC [14]: 0.138 µg/mL (≈ 0.375 µM); MIC [15]: 2.2 µg/mL (≈ 5.97 µM); MIC [16]: 1.1 µg/mL (≈ 2.99 µM); MIC [17]: 0.276 µg/mL (≈ 0.749 µM); MIC [18]: 17.6 µg/mL (≈ 47.9 µM); MIC [19]: 4.41 µg/mL (≈ 12 µM); MIC [20]: 8.82 µg/mL (≈ 23.9 µM); MIC [21]: 1.1 µg/mL (≈ 2.99 µM); MIC [22]: 0.551 µg/mL (≈ 1.5 µM); MIC [23]: 0.276 µg/mL (≈ 0.749 µM); MIC [24]: 2.21 µg/mL (≈ 5.98 µM)
C(=C\c1cc2ccc(C3=NCCN3)cc2[nH]1)/c1ccc2cc(C3=NCCN3)[nH]c2c1 [NSC 341907, 6-(4,5-dihydro-1H-imidazol-2-yl)-2-[(E)-2-[2-(4,5-dihydro-1H-imidazol-2-yl)-1H-indol-6-yl]ethenyl]-1H-indole]	18.7 (≈ 47.4 µM)	9.34 (≈ 23.7 µM)	inhibit	–
c1cc(-c2[nH]c3cc(C4=NCCN4)ccc3c2-c2cc3ccc(C4=NCCN4)cc3[nH]2)ccc1C1=NCCN1 [NSC 341911, 6-(4,5-dihydro-1H-imidazol-2-yl)-3-[6-(4,5-dihydro-1H-imidazol-2-yl)-1H-indol-2-yl]-2-[4-(4,5-dihydro-1H-imidazol-2-yl)phenyl]-1H-indole]	24.9 (≈ 48.5 µM)	–	inhibit	MIC B. anthracis spores [3]: 24.88 µg/mL (≈ 48.5 µM)

— US8691859B2 (priority 2005, dated 2014)
